US20250011368A1, “DLL3 TARGETING PEPTIDES AND CONSTRUCTS THEREOF” (MARIANA ONCOLOGY INC., priority 2023, published 2025)
Numbered stars: 1 amine (or outer) side, 2 acyl side, 3 side chain; on linkers, the order of the positions; unused ones are H or OH. Bridge positions count the residues as written; N and C are the ends. Square brackets hold non-standard residues; d marks the D form. Side chains are listed from the residue outwards. Peptide text beside a SMILES is read from it. * marks the point of attachment. X9 = O=C(O)CN1CCN(CC(=O)O)CCN(CC(=O)NCCCOCCOCCOCCCN*)CCN(CC(=O)O)CC1; DOTA = O=C(O)CN1CCN(CC(=O)O)CCN(CC(=O)*)CCN(CC(=O)O)CC1; Trp(7-Cl) = N[C@@H](Cc1c[nH]c2c(Cl)cccc12)C(=O)O; Trp(7-Me) = Cc1cccc2c(C[C@H](N)C(=O)O)c[nH]c12; γGlu = O=C(O)[C@H](CCC(=O)[*:2])N[*:1]; 2Nal = N[C@@H](Cc1ccc2ccccc2c1)C(=O)O; Suc = O=C(CCC(=O)[*:2])[*:1]; NMeA = CN[C@@H](C)C(=O)O; Aze = O=C(O)[C@@H]1CCN1; Sar = CNCC(=O)O

What follows are compounds tested against T1, human DLL3 (Homo sapiens, UniProt Q9NYJ7) (assay: Affinity determination by Surface Plasmon Resonance (SPR)). Conditions: 25° C., biotinylated human DLL3 immobilized on streptavidin sensor chip, 1:1 binding model; read-out: SPR KD.
T1 sequence (Q9NYJ7 27-618): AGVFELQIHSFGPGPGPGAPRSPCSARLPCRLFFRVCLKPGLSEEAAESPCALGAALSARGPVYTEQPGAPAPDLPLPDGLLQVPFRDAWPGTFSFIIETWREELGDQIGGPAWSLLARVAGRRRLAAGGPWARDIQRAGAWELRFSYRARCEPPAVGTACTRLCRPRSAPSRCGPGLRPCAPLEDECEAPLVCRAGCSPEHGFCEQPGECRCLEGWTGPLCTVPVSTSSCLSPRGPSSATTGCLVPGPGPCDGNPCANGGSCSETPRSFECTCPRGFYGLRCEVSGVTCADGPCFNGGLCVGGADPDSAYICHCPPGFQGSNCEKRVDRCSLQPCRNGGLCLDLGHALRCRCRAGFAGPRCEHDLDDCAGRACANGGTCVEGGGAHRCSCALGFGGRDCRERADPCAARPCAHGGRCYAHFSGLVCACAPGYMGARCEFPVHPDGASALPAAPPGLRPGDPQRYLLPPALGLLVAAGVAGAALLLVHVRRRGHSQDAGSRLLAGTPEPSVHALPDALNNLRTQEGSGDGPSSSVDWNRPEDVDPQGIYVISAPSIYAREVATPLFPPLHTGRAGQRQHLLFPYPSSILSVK
Format: binding
Procedure, shortened: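 Biotinylated human DLL3 was captured on a streptavidin chip with a reference surface. Compounds at several concentrations were injected at 100 μL/minute in phosphate buffer (137 mM NaCl, 2.7 mM KCl, 0.05% P20, 2% DMSO). Affinity and kinetics came from 1:1 model fits of the sensorgrams.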

Structure (SMILES) | Kd [nM]
CC[C@H](C)[C@H](NC(=O)[C@@H](NC(=O)[C@H](Cc1c[nH]c2c(C)cccc12)NC(C)=O)[C@@H](C)O)C(=O)N[C@H]1CSSC[C@@H](C(=O)N[C@@H](Cc2c[nH]c3ccccc23)C(=O)N2CCC[C@H]2C(=O)N[C@H](CCCCNC(=O)CN2CCN(CC(=O)O)CCN(CC(=O)O)CCN(CC(=O)O)CC2)C(N)=O)NC(=O)[C@H](CC(=O)O)NC(=O)[C@H](Cc2cnc[nH]2)NC(=O)[C@H](Cc2ccc3ccccc3c2)NC(=O)[C@H](CC(N)=O)NC(=O)[C@H](CC(N)=O)NC1=O [compound 206, Ac-(7-Me-W)-T-I-C(3)-N-N-(2Nal)-H-D-C(3)-W-P-[D-Lys(DOTA)]-NH2] (Ac-[Trp(7-Me)]TICNN[2Nal]HDCWP[dK](DOTA)-NH2; disulfide 4-10) | < 1
CC[C@H](C)[C@H](NC(=O)[C@@H](NC(=O)[C@H](Cc1c[nH]c2c(C)cccc12)NC(C)=O)[C@@H](C)O)C(=O)N[C@H]1CSSC[C@@H](C(=O)N[C@@H](Cc2c[nH]c3ccccc23)C(=O)N2CCC[C@H]2C(=O)N[C@H](CCCCNC(=O)CC[C@H](NC(=O)CC[C@H](NC(=O)CC[C@H](NC(=O)CN2CCN(CC(=O)O)CCN(CC(=O)O)CCN(CC(=O)O)CC2)C(=O)O)C(=O)O)C(=O)O)C(N)=O)NC(=O)[C@H](CC(=O)O)NC(=O)[C@H](Cc2cnc[nH]2)NC(=O)[C@H](Cc2ccc3ccccc3c2)NC(=O)[C@H](CC(N)=O)NC(=O)[C@H](CC(N)=O)NC1=O [compound 207, Ac-(7-Me-W)-T-I-C(3)-N-N-(2Nal)-H-D-C(3)-W-P-[D-Lys(gE-gE-gE-DOTA)]-NH2] (Ac-[Trp(7-Me)]TICNN[2Nal]HDCWP[dK]([γGlu-γGlu-γGlu-DOTA])-NH2; disulfide 4-10) | < 1
CC[C@H](C)[C@H](NC(=O)[C@@H](NC(=O)[C@H](Cc1c[nH]c2ccccc12)NC(C)=O)[C@@H](C)O)C(=O)N[C@H]1CSSC[C@@H](C(=O)N[C@@H](Cc2c[nH]c3ccccc23)C(=O)N2CCC[C@H]2C(=O)N[C@H](CCCCNC(=O)CN2CCN(CC(=O)O)CCN(CC(=O)O)CCN(CC(=O)O)CC2)C(N)=O)NC(=O)[C@H](CC(=O)O)NC(=O)[C@H](Cc2cnc[nH]2)NC(=O)[C@H](Cc2ccc3ccccc3c2)NC(=O)[C@H](CC(N)=O)NC(=O)[C@H](CO)NC1=O [compound 208, Ac-W-T-I-C(3)-(Ser)-N-(2Nal)-H-D-C(3)-W-P-[D-Lys(DOTA)]-NH2] (Ac-WTICSN[2Nal]HDCWP[dK](DOTA)-NH2; disulfide 4-10) | < 1
CC[C@H](C)[C@H](NC(=O)[C@@H](NC(=O)[C@H](Cc1c[nH]c2c(Cl)cccc12)NC(C)=O)[C@@H](C)O)C(=O)N[C@H]1CSSC[C@@H](C(=O)N[C@@H](Cc2c[nH]c3ccccc23)C(=O)N2CCC[C@H]2C(=O)N[C@H](CCCCNC(=O)CN2CCN(CC(=O)O)CCN(CC(=O)O)CCN(CC(=O)O)CC2)C(N)=O)NC(=O)[C@H](CC(=O)O)NC(=O)[C@H](Cc2cnc[nH]2)NC(=O)[C@H](Cc2c[nH]c3ccccc23)NC(=O)[C@H](CC(N)=O)NC(=O)[C@H](CC(N)=O)NC1=O [compound 226, Ac-(7-CI-W)-T-I-C(3)-N-N-W-H-D-C(3)-W-P-[D-Lys(DOTA)]-NH2] (Ac-[Trp(7-Cl)]TICNNWHDCWP[dK](DOTA)-NH2; disulfide 4-10) | 1 to 10
CC[C@H](C)[C@H](NC(=O)[C@@H](NC(=O)[C@H](Cc1c[nH]c2ccccc12)NC(C)=O)[C@@H](C)O)C(=O)N[C@H]1CSSC[C@@H](C(=O)N[C@@H](Cc2c[nH]c3ccccc23)C(=O)N(C)[C@@H](C)C(=O)N[C@@H](CCCCNC(=O)CN2CCN(CC(=O)O)CCN(CC(=O)O)CCN(CC(=O)O)CC2)C(N)=O)NC(=O)[C@H](CC(=O)O)NC(=O)[C@H](Cc2c[nH]cn2)NC(=O)[C@H](Cc2c[nH]c3ccccc23)NC(=O)[C@H](CC(N)=O)NC(=O)[C@H](CC(N)=O)NC1=O [compound 229, Ac-W-T-I-C(3)-N-N-W-H-D-C(3)-W-NmeA-[D-Lys(DOTA)]-NH2] (Ac-WTICNNWHDCW[NMeA]K(DOTA)-NH2; disulfide 4-10) | 10 to 100
CC[C@H](C)[C@H](NC(=O)[C@@H](NC(=O)[C@H](Cc1c[nH]c2ccccc12)NC(C)=O)[C@@H](C)O)C(=O)N[C@H]1CSSC[C@@H](C(=O)N[C@@H](Cc2c[nH]c3ccccc23)C(=O)N2CCC[C@H]2C(=O)NCC(=O)NCC(=O)N[C@@H](CO)C(=O)NCC(=O)NCC(=O)N[C@@H](CO)C(=O)N[C@H](CCCCNC(=O)CN2CCN(CC(=O)O)CCN(CC(=O)O)CCN(CC(=O)O)CC2)C(N)=O)NC(=O)[C@H](CC(=O)O)NC(=O)[C@H](Cc2cnc[nH]2)NC(=O)[C@H](Cc2ccc3ccccc3c2)NC(=O)[C@H](CC(N)=O)NC(=O)[C@H](CC(N)=O)NC1=O [compound 231, Ac-W-T-I-C(3)-N-N-(2Nal)-H-D-C(3)-W-P-G-G-S-G-G-S-[D-Lys(DOTA)]-NH2] (Ac-WTICNN[2Nal]HDCWPGGSGGS[dK](DOTA)-NH2; disulfide 4-10) | < 1

Second part, the compound after the results:

Kd [nM] | Structure (SMILES)
< 1 | CC[C@H](C)[C@H](NC(=O)[C@@H](NC(=O)[C@H](Cc1c[nH]c2ccccc12)NC(C)=O)[C@@H](C)O)C(=O)N[C@H]1CSSC[C@@H](C(=O)N[C@@H](Cc2c[nH]c3ccccc23)C(=O)N2CCC[C@H]2C(=O)N[C@H](CCCCNC(=O)CN2CCN(CC(=O)O)CCN(CC(=O)O)CCN(CC(=O)O)CC2)C(N)=O)NC(=O)[C@H](CC(=O)O)NC(=O)[C@H](Cc2cnc[nH]2)NC(=O)[C@H](Cc2ccc3ccccc3c2)NC(=O)[C@H](CC(=O)O)NC(=O)[C@H](CC(N)=O)NC1=O [compound 209, Ac-W-T-I-C(3)-N-(Asp)-(2Nal)-H-D-C(3)-W-P-[D-Lys(DOTA)]-NH2] (Ac-WTICND[2Nal]HDCWP[dK](DOTA)-NH2; disulfide 4-10)
< 1 | CC[C@H](C)[C@H](NC(=O)[C@@H](NC(=O)[C@H](Cc1c[nH]c2ccccc12)NC(C)=O)[C@@H](C)O)C(=O)N[C@H]1CSSC[C@@H](C(=O)N[C@@H](Cc2c[nH]c3ccccc23)C(=O)N2CCC[C@H]2C(=O)N[C@H](CCCCNC(=O)CN2CCN(CC(=O)O)CCN(CC(=O)O)CCN(CC(=O)O)CC2)C(N)=O)NC(=O)[C@H](CC(=O)O)NC(=O)[C@H](Cc2cnc[nH]2)NC(=O)[C@H](Cc2ccc3ccccc3c2)NC(=O)[C@H](CCCCN)NC(=O)[C@H](CC(N)=O)NC1=O [compound 213, Ac-W-T-I-C(3)-N-(Lys)-(2Nal)-H-D-C(3)-W-P-[D-Lys(DOTA)]-NH2] (Ac-WTICNK[2Nal]HDCWP[dK](DOTA)-NH2; disulfide 4-10)
1 to 10 | CC[C@H](C)[C@H](NC(=O)[C@@H](NC(=O)[C@H](Cc1c[nH]c2ccccc12)NC(C)=O)[C@@H](C)O)C(=O)N[C@H]1CSSC[C@@H](C(=O)N[C@@H](Cc2c[nH]c3ccccc23)C(=O)N(C)CC(=O)N[C@H](CCCCNC(=O)CN2CCN(CC(=O)O)CCN(CC(=O)O)CCN(CC(=O)O)CC2)C(N)=O)NC(=O)[C@H](CC(=O)O)NC(=O)[C@H](Cc2cnc[nH]2)NC(=O)[C@H](Cc2c[nH]c3ccccc23)NC(=O)[C@H](CC(N)=O)NC(=O)[C@H](CC(N)=O)NC1=O [compound 227, Ac-W-T-I-C(3)-N-N-W-H-D-C(3)-W-Sar-[D-Lys(DOTA)]-NH2] (Ac-WTICNNWHDCW[Sar][dK](DOTA)-NH2; disulfide 4-10)
1 to 10 | CC[C@H](C)[C@H](NC(=O)[C@@H](NC(=O)[C@H](Cc1c[nH]c2ccccc12)NC(C)=O)[C@@H](C)O)C(=O)N[C@H]1CSSC[C@@H](C(=O)N[C@@H](Cc2c[nH]c3ccccc23)C(=O)N2CC[C@H]2C(=O)N[C@H](CCCCNC(=O)CN2CCN(CC(=O)O)CCN(CC(=O)O)CCN(CC(=O)O)CC2)C(N)=O)NC(=O)[C@H](CC(=O)O)NC(=O)[C@H](Cc2cnc[nH]2)NC(=O)[C@H](Cc2c[nH]c3ccccc23)NC(=O)[C@H](CC(N)=O)NC(=O)[C@H](CC(N)=O)NC1=O [compound 228, Ac-W-T-I-C(3)-N-N-W-H-D-C(3)-W-Aze-[D-Lys(DOTA)]-NH2] (Ac-WTICNNWHDCW[Aze][dK](DOTA)-NH2; disulfide 4-10)
< 1 | CC[C@H](C)[C@H](NC(=O)[C@@H](NC(=O)[C@H](Cc1c[nH]c2ccccc12)NC(C)=O)[C@@H](C)O)C(=O)N[C@H]1CSSC[C@@H](C(=O)N[C@@H](Cc2c[nH]c3ccccc23)C(=O)N2CCC[C@H]2C(=O)N[C@H](CCCCNC(=O)CNC(=O)CNC(=O)CCC(=O)NCCCOCCOCCOCCCNC(=O)CN2CCN(CC(=O)O)CCN(CC(=O)O)CCN(CC(=O)O)CC2)C(N)=O)NC(=O)[C@H](CC(=O)O)NC(=O)[C@H](Cc2cnc[nH]2)NC(=O)[C@H](Cc2ccc3ccccc3c2)NC(=O)[C@H](CC(N)=O)NC(=O)[C@H](CC(N)=O)NC1=O [compound 230, Ac-W-T-I-C(3)-N-N-(2Nal)-H-D-C(3)-W-P-[D-Lys(G-G-TTDS-DOTA)]-NH2] (Ac-WTICNN[2Nal]HDCWP[dK]([Gly-Gly-Suc-X9])-NH2; disulfide 4-10)
